In article PMC2361347 (British Journal of Cancer, 2006):
Like-named read-outs stand apart in the source and are kept apart here.

Tests used:
[1] = system: Ba/F3 cells transfected to express Bcr-Abl F317L (p210); experiment: cells; settings: Mus musculus, BaF3, read-out: Proliferation IC50
[2] = system: Ba/F3 cells transfected to express Bcr-Abl K285N (p185); experiment: cells; settings: Mus musculus, BaF3, read-out: Proliferation IC50
[3] = system: Ba/F3 cells transfected to express Bcr-Abl F359V (p185); experiment: cells; settings: Mus musculus, BaF3, read-out: Proliferation IC50
[4] = system: mice injected with BCR-ABL-transformed haematopoietic cell lines or primary marrow cells; settings: ref Weisberg et al, 2005; cited from earlier work
[5] = system: Ba/F3 cells transfected to express Bcr-Abl F486S (p210); experiment: cells; settings: Mus musculus, BaF3, read-out: Proliferation IC50
[6] = system: Ba/F3 cells transfected to express Bcr-Abl G250E (p185); experiment: cells; settings: Mus musculus, BaF3, read-out: Proliferation IC50
[7] = system: Ba/F3 cells transfected to express Bcr-Abl E255V (p210); experiment: cells; settings: Mus musculus, BaF3, read-out: Proliferation IC50
[8] = system: Ba/F3 cells transfected to express Bcr-Abl E255D (p185); experiment: cells; settings: Mus musculus, BaF3, read-out: Proliferation IC50
[9] = system: imatinib-resistant CML patients and Ph+ ALL patients; settings: cited from earlier work; for CML patients who have responded: early-phase clinical findings
[10] = system: Ba/F3 cells transfected to express Bcr-Abl Y253H (p185); experiment: cells; settings: Mus musculus, BaF3, read-out: Proliferation IC50
[11] = system: imatinib-resistant BCR-ABL mutants; settings: number of mutants / mutants tested; Table 1
[12] = system: Ba/F3 cells transfected to express Bcr-Abl L248V (p185); experiment: cells; settings: Mus musculus, BaF3, read-out: Proliferation IC50
[13] = system: Ba/F3 cells transfected to express Bcr-Abl F311V (p185); experiment: cells; settings: Mus musculus, BaF3, read-out: Proliferation IC50
[14] = system: Ba/F3 cells transfected to express Bcr-Abl T315I (p210); experiment: cells; settings: Mus musculus, BaF3, read-out: Proliferation IC50
[15] = system: Ba/F3 cells transfected to express Bcr-Abl E355G (p185); experiment: cells; settings: Mus musculus, BaF3, read-out: Proliferation IC50
[16] = system: Ba/F3 cells transfected to express Bcr-Abl G250V (p185); experiment: cells; settings: Mus musculus, BaF3, read-out: Proliferation IC50
[17] = system: Ba/F3 cells transfected to express Bcr-Abl E355A (p185); experiment: cells; settings: Mus musculus, BaF3, read-out: Proliferation IC50
[18] = system: Ba/F3 cells transfected to express Bcr-Abl E275K (p185); experiment: cells; settings: Mus musculus, BaF3, read-out: Proliferation IC50
[19] = system: Ba/F3 cells transfected to express Bcr-Abl M237I (p185); experiment: cells; settings: Mus musculus, BaF3, read-out: Proliferation IC50
[20] = system: Ba/F3 cells transfected to express Bcr-Abl L387F (p185); experiment: cells; settings: Mus musculus, BaF3, read-out: Proliferation IC50
[21] = system: KBM5; parameters: method as in Golemovic et al, 2005; settings: KBM5 cell line; ref Golemovic et al, 2005; cited from earlier work
[22] = system: Ba/F3 cells transfected to express Bcr-Abl E281K (p185); experiment: cells; settings: Mus musculus, BaF3, read-out: Proliferation IC50
[23] = system: Ba/F3 cells transfected to express Bcr-Abl A380S (p185); experiment: cells; settings: Mus musculus, BaF3, read-out: Proliferation IC50
[24] = system: Ba/F3 cells transfected to express Bcr-Abl G250A (p185); experiment: cells; settings: Mus musculus, BaF3, read-out: Proliferation IC50
[25] = system: Ba/F3 cells transfected to express Bcr-Abl Wild-type p210; experiment: cells; settings: Mus musculus, BaF3, read-out: Proliferation IC50
[26] = system: Ba/F3 cells transfected to express Bcr-Abl E255K (p185); experiment: cells; settings: Mus musculus, BaF3, read-out: Proliferation IC50
[27] = system: Ba/F3 cells transfected to express Bcr-Abl E255K (p210); experiment: cells; settings: Mus musculus, BaF3, read-out: Proliferation IC50
[28] = system: T315I mutant; settings: Table 1
[29] = system: imatinib-resistant CML mouse models; parameters: method as in Weisberg et al, 2005; settings: ref Weisberg et al, 2005; cited from earlier work
[30] = system: Ba/F3 cells transfected to express Bcr-Abl Wild-type p210+IL-3; experiment: cells; settings: Mus musculus, BaF3, read-out: Proliferation IC50
[31] = system: Ba/F3 cells transfected to express Bcr-Abl E292K (p210); experiment: cells; settings: Mus musculus, BaF3, read-out: Proliferation IC50
[32] = system: Ba/F3 cells transfected to express Bcr-Abl M388L (p185); experiment: cells; settings: Mus musculus, BaF3, read-out: Proliferation IC50
[33] = system: Ba/F3 cells transfected to express Bcr-Abl F317V (p185); experiment: cells; settings: Mus musculus, BaF3, read-out: Proliferation IC50
[34] = system: Ba/F3 cells transfected to express Bcr-Abl F359C (p185); experiment: cells; settings: Mus musculus, BaF3, read-out: Proliferation IC50
[35] = system: KBM7; parameters: method as in Golemovic et al, 2005; settings: KBM7 cell line; ref Golemovic et al, 2005; cited from earlier work
[36] = parameters: method as in Kantarjian et al, 2006; settings: patients receiving 400 mg b.i.d.; ref Kantarjian et al, 2006; cited from earlier work
[37] = system: Ba/F3 cells transfected to express Bcr-Abl F317C (p185); experiment: cells; settings: Mus musculus, BaF3, read-out: Proliferation IC50
[38] = system: newly diagnosed patients in the chronic phase of CML; settings: cited from earlier work; for annual rate of progression (resulting in death): IRIS study
[39] = accelerated phase CML patients, ref Kantarjian et al, 2006
[40] = blast-phase CML patients, ref Kantarjian et al, 2006
[41] = chronic phase CML patients, ref Kantarjian et al, 2006
[42] = newly diagnosed chronic-phase patients, ref Simonsson, 2005

Molecule `Cc1cn(-c2cc(NC(=O)c3ccc(C)c(Nc4nccc(-c5cccnc5)n4)c3)cc(C(F)(F)F)c2)cn1` [AMN107] has an IC50 [1] of 91 ± 6.5 nM, an IC50 [2] of 57 ± 12 nM and an IC50 [3] of 161 ± 61 nM. The survival of mice [4] was “prolong the survival”, the IC50 [5] was 75 ± 7 nM and the IC50 [6] was 145 ± 32 nM. The IC50 [7] was 791 ± 67 nM, the IC50 [8] was 27 ± 3.1 nM and the maximum tolerated dose ([9]; Phase I, 50–1200 mg day−1 for up to 385 days, ref Kantarjian et al, 2006) was 600 mg b.i.d. For the same molecule, the cytogenetic responses [9, 39] was 48%, the haematological responses [9, 39] was 72% and the cytogenetic responses [9, 40] was 27%. For the same molecule, the haematological responses [9, 40] was 39%, the cytogenetic responses [9, 41] was 53% and the haematological responses [9, 41] was 92%. For the same molecule, the “CML patients who have responded” value ([9]; early, chronic-phase patients) was “over 90%”, the “imatinib-resistant Ph+ ALL patients who responded” value ([9]; of 13 Ph+ ALL patients, ref Kantarjian et al, 2006) was “Two” and the “CML patients who have responded” value ([9]; patients with advanced disease) was “Greater than 70%”. The IC50 [10] was 700 ± 116 nM, the “imatinib-resistant BCR-ABL mutants against which activity is maintained” value [11] was 32/33 and the IC50 [12] was 102 ± 13 nM. The IC50 [13] was 155 ± 31 nM, the IC50 [14] was greater than 10000 nM and the IC50 [15] was 47 ± 8 nM. It also gave an IC50 [16] of 19 ± 1.4 nM, an IC50 [17] of 35 ± 6.7 nM and an IC50 [18] of 44 ± 17.1 nM. For the same molecule, the IC50 [19] was 43 ± 8.7 nM, the IC50 [20] was 46 ± 7.2 nM and the “times more potent than imatinib” value [21] was 43 times. The IC50 [22] was 40 ± 9.8 nM, the IC50 [23] was 164 ± 27 nM and the IC50 [24] was 65 ± 5.6 nM. It also gave an IC50 [25] of 25 ± 1 nM, an IC50 [26] of 308 ± 42 nM and an IC50 [27] of 548 ± 72 nM. For the same molecule, the “activity against the T315I mutant” value [28] was “no significant activity”, the survival [29] was “prolong survival” and the IC50 [30] was greater than 10000 nM. It also gave an IC50 [31] of 81 ± 8 nM, an IC50 [32] of 18 ± 2.6 nM and an IC50 [33] of 28 ± 4 nM. The IC50 [34] was 258 ± 61 nM, the “times more potent than imatinib” value [35] was 60 times and the apparent half-life [36] was 15 h. The “mean peak plasma level” value [36] was 3.6 µM, the “mean trough plasma level” value [36] was 1.7 µM and the IC50 [37] was 20 ± 3.1 nM.

For `Cc1ccc(NC(=O)c2ccc(CN3CCN(C)CC3)cc2)cc1Nc1nccc(-c2cccnc2)n1` [Imatinib], the “annual rate of progression (resulting in death)” value (“annual rate of progression” below) ([38]; after 1 year of therapy) is listed as 3.4%, the “annual rate of progression” value ([38]; after 2 years of therapy) is listed as 7.5% and the “annual rate of progression” value ([38]; after 3 years of therapy) is listed as 4.8%. For the same molecule, the “annual rate of progression” value ([38]; after 4 years of therapy) was 1.5%, the complete cytogenetic responses [38, 42] was 86% and the complete haematologic remissions [38, 42] was 98%.
